Measurements: BindingDB's records for PubMed 35814933 (Nankai University, 2022)
pIC50: −log10 of the molar value.

Columns and labels:
[1] = biological target: Cyclin-dependent kinase 5 (Homo sapiens, UniProt Q00535); experiment: Inhibition of CDK5 (unknown origin)
[2] = biological target: Cyclin-dependent kinase 7 (Homo sapiens, UniProt P50613); experiment: Inhibition of CDK7 (unknown origin)
Chain of Cyclin-dependent kinase 7 (P50613 whole entry): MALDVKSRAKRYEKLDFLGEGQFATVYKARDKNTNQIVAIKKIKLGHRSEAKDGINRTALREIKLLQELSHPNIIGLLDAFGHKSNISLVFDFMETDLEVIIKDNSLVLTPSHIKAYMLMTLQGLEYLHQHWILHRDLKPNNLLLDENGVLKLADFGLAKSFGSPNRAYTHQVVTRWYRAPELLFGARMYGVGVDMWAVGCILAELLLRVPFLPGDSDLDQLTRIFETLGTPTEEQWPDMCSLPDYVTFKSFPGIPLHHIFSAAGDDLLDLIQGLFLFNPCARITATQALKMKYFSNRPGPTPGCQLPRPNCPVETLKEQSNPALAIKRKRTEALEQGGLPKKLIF

Chain of Cyclin-dependent kinase 5 (Q00535 whole entry): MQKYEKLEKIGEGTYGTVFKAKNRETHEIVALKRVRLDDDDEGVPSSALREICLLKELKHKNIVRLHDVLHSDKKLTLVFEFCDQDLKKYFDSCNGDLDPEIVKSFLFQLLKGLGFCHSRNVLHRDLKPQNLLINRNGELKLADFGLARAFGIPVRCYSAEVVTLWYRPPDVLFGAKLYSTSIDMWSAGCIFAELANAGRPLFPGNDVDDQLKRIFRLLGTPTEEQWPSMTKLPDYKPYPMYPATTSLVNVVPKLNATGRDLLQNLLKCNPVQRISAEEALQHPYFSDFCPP

## CC[C@H](Nc1nc(NCc2cnc(C)cc2C)c2ncn(C(C)C)c2n1)[C@@H](C)O [US8592581, 1]
[1]
  pIC50: 7.68
[2]
  pIC50: 6.71
